Data as given in US20090176786A1, “Benzoylurea Compounds and Use Thereof” (priority 2005, published 2009).

Key:
Assay type in all cases: in vivo
[1] = system: Plutella xylostella; experiment: Test Example 2: cabbage root immersion (systemic), dead pest rate of Plutella xylostella larvae; conditions: Plutella xylostella, 120 h; test concentration 25 ppm; root immersion 5 days; 10 second-instar larvae; after 5 days at 24° C.
Experimental: In 0.25 mL of a mixture solution of Sorgen TW-20 (manufactured by Daiichi Industries Pharmaceuticals, Co., Ltd.) and acetone (mixture volume ratio; Sorgen TW-20:acetone=1:19), 2.5 mg of the present compound (1), (2), (3), (4), (7), (10), (11), (12), (16), (18), (19), (20), (21), (22), (25), (30), (36), (37), (41), (42), (52), (54), (56), (57), (60), (62), (105) or (109) was dissolved. The solution was diluted with ion-exchanged water so that the active ingredient concentration became to a predetermined concentration to prepare a pesticidal solution for test of the test compound. The root part of cabbages in the fourth leaf period were washed with tap water to remove soils, and then immersed in the pesticidal solution for test. After 5 days from immersion of the root part, the root part was removed, and the leaves and stems were put in a cup (volume; 180 mL). In the cup 10 second-instar larvae of Plutella xylostella were released, and the cup was stored at 24° C. After 5 days, the number of dead pests was counted, and the dead pest rate was calculated by the following equation:
(§1) Dead pest rate(%)=(the number of dead pests/the number of tested pests)×100
The test concentrations of the other present compounds were 25 ppm.

[2] = system: Coptotermes formosanus; experiment: Test Example 8: filter paper bait test, control rate of Coptotermes formosanus; conditions: filter paper bait treated with 1 mL of 10 mg/mL acetone solution; 20 ergates; 6 weeks in a dark place
Experimental: A filter paper having a diameter of 33 mm (No. 1026 manufactured by Toyo Filter Paper, Co., Ltd.) was treated with acetone solution (1 mL) of 10 mg/mL of the present compounds (1) or (12) using a pipette, and dried at room temperature. Hereinafter, the resulting filter paper is referred to as a filter paper bait. 4% agarose was poured into a plastic petri dish having a diameter of 9 cm to make the thickness about 5 mm, and solidified by leaving at rest at room temperature. One circular hole having a diameter of 35 mm (hereinafter, referred to as a well) was made in the solidified agarose. One filter paper bait was put into the well. Then, after 20 ergates of Coptotermes formosanus were released in the above petri dish, the petri dish was capped, and sealed with a parafilm. After storing in a dark place for 6 weeks, the petri dish was opened. The control rate was calculated by observing the life and death of the Coptotermes formosanus in the petri dish.

[3] = system: Plutella xylostella; experiment: Test Example 5: cabbage root immersion, Plutella xylostella, against comparative compounds A and B; conditions: 25 ppm; root immersion 5 days; 10 second-instar larvae; after 5 days at 24° C.
Experimental: In 0.25 mL of a mixed solution of Tween-20 and acetone (mixture volume ratio: Tween-20:acetone=1:19), 2.5 mg of the present compound (1), (4), (10), (82), comparative compound A or B was dissolved. The solution was diluted with ion-exchanged water so that the active ingredient concentration became to the predetermined concentration (25 ppm) to prepare a pesticidal solution for test of the test compound. The root part of cabbages in the fourth leaf period was washed with tap water to remove soils, and then immersed in the pesticidal solution for test. After 5 days from immersion of the root part, the root part was removed, and the leaves and stems were put in a cup (volume; 180 mL). In the cup 10 second-instar larvae of Plutella xylostella were released, and the cup was stored at 24° C. After 5 days, the number of dead pests was countered, and the dead pest rate was calculated by the following equation:
as §1

[4] = system: Plutella xylostella; experiment: Test Example 7: cabbage root immersion, Plutella xylostella, against comparative compound D; conditions: 25 ppm; root immersion 5 days; 10 second-instar larvae; after 5 days at 24° C.
Experimental: In 0.25 mL of a mixed solution of Tween-20 and acetone (mixture volume ratio: Tween-20:acetone=1:19), 2.5 mg of the present compound (94) or comparative compound D was dissolved. The solution was diluted with ion-exchanged water so that the active ingredient concentration became to the predetermined concentration (25 ppm) to prepare a pesticidal solution for test of the test compound. The root part of cabbages in the fourth leaf period was washed with tap water to remove soils, and then immersed in the pesticidal solution for test. After 5 days from immersion of the root part, the root part was removed, and the leaves and stems were put in a ice cream cup (volume; 180 mL). In the cup 10 second-instar larvae of Plutella xylostella were released, and the cup was stored at 24° C. After 5 days, the number of dead pests was countered, and the dead pest rate was calculated by the following equation:
as §1

[5] = system: Spondoptela litura; experiment: Test Example 3: treated artificial diet (Insecta LF), dead pest rate of Spondoptela litura larvae; conditions: 144 h, 2 mL on Insecta LF diet, 5 fourth-instar larvae, after 6 days
Excerpt: Ten parts of the present compound (1) to (5), (7) to (13), (18) to (33), (35) to (49), (52) to (56), (58) to (61), (71), (73) to (77), (79), (80), (82), (83), (93), (94), (95), (96), (97), (100) to (109), (111), (112), (115), (117), (119), (121), or (123) to (133), 35 parts of white carbon containing 50 parts of polyoxyethylene alkyl ether sulfate ammonium salt, and 55 parts of water were mixed, and finely ground by a wet grinding method to obtain a preparation. The obtained preparation was diluted with water so that the active ingredient concentration became to 500 ppm to prepare a pesticidal solution for test. On the bottom of a polyethylene cup having a diameter of 5.5 cm, a filter paper having a diameter of 5.5 cm was placed, on which Insecta LF (Nippon Agriculture Industries, Co., Ltd.) sliced in a thickness of 6 mm and further cut half was laid, and to which 2 mL of the above-described pesticidal solution for test was added. After air-dried, 5 fourth-instar larvae of Spondoptela litura were released in the cup, and the cup was capped. After 6 days, the number of dead pests was counted, and the dead pest rate was calculated by the following equation:
as §1

[6] = system: Plutella xylostella; experiment: Test Example 1: spray on cabbage, dead pest rate of Plutella xylostella larvae; conditions: Plutella xylostella, 120 h; 500 ppm spray solution, 20 ml/cup on cabbage; 5 second-instar larvae; after 5 days
Experimental: Ten parts of the present compound (1), (2), (5) to (19), (21) to (34), (36) to (61), (63), (64), (68) to (71), (74), (76) to (78), (82) to (83), (89), (93), (94), (97), (99), (102) to (110), (111), (115), (116) (117) to (120) or (123) to (134); 35 parts of white carbon containing 50 parts of polyoxyethylene alkyl ether sulfate ammonium salt; and 55 parts of water were mixed, and finely ground by a wet grinding method to obtain a 10% flowable agent. The obtained flowable agent was diluted with water so that the active ingredient concentration became to 500 ppm to prepare a spray solution for test.
Cabbages were planted in polyethylene cups, and grown until the third true leaf or the fourth true leaf was developed. The spray solution for test prepared above was sprayed at a rate of 20 ml/cup on the cabbages.
After the pesticidal solution sprayed onto the cabbages was dried, 5 second-instar larvae of Plutella xylostella were put on the cabbages. After 5 days, the number of dead Plutella xylostella was examined, and a dead pest rate was calculated by the following equation:
as §1

Structure (SMILES)	pest or weed control at 25 ppm [1]	control rate [2]	also measured
CN(C(=O)c1c(F)cccc1F)C(=O)N(C)c1ccc(SC(F)(F)F)cc1F [(10)]	100%	65%	
CN(C(=O)c1c(F)cccc1F)C(=O)N(C)c1ccc(SC(F)(F)C(F)F)cc1F [(12)]	100%	60%	
O=C(NC(=O)c1c(F)cccc1F)Nc1ccc(SC(F)(F)F)cc1F [comparative compound A]			dead pest rate [3]: 5%
CN(C(=O)NC(=O)c1c(F)cccc1F)c1ccc(SC(F)(F)C(F)F)cc1 [(94)]			dead pest rate [4]: 100%; pest or weed control at 500 ppm [5]: 100%; pest or weed control at 500 ppm [6]: 100%
